The text below walks through data of patent US8106168B2, “Metalloproteinase binding proteins” (Dyax Corp., priority 2005, dated 2012).

Molecules are shown by their SMILES.

Assay [1] concerns activation of pro-MMP-2 by MMP-14 in PMA-activated HT-1080 cells. The experiment in a line: Gelatin zymogram, pro-MMP-2 activation in HT-1080 cells. The class given is cell-based, human. Conditions: gelatin zymography of conditioned media after 3 days; antibodies 10 μg/ml, GM6001 10 μM. How it is done:
The ability of anti-MMP-14 IgGs to inhibit the activation of pro-MMP-2 by MMP-14 was examined by gelatin zymogram experiments performed with PMA-activated HT-1080 cells. M0033-H07 and M0038-F01 were tested for their ability to inhibit MMP-14 in this assay. HT1080 cells (well-known to express MMP-14 and MMP-2) were seeded at 5×10^5 cells/well at Day 0. […] HT-1080 cells cultured in the presence of 20 ng/ml of PMA were used as a positive control.
After 3 days of incubation, conditioned media were collected and gelatinolytic activities were analyzed by gelatin zymography as described previously (Maquoi et al, J Biol Chem 2000; 275:11368-78). When HT-1080 cells are activated with a phorbol ester, pro-MMP-2 is activated into MMP-2 (lane 1).

The test system of another assay is B16F1 melanoma tumors. Nature of the assay: B16F1 melanoma subcutaneous tumor growth. In kind it is in vivo, mouse. As to conditions: M0038-F01 10, 1 or 0.1 mg/kg Q2d IP; doxorubicin 5 mg/kg weekly IP. The text has this: B16F1 melanoma cells were implanted into Female C57/BL6 (CR) mice (4-6 Weeks old) mice by subcutaneous injection.
Another assay concerns MDA-MB-231-GFP tumors. Nature of the assay: MDA-MB-231-GFP orthotopic breast tumor growth and metastasis.
Another assay deals with MDA-MB-435 GFP tumors. The experiment in a line: MDA-MB-435 GFP orthotopic breast tumor growth. In kind it is in vivo, mouse. The text has this: Fragments of MDA-MB-435 GFP (MDA-MB-435 cells expressing green fluorescent protein) tumors were transplanted by surgical orthotopic implantation (SOI) into the right second mammary gland. Treatment was started on day 15 after SOI when the volume of primary tumors reached about 85 mm^3.
Mice were sacrificed at day 61 after the start of the treatment and tumors (primary and metastases) were identified by fluorescent imaging. Additionally, primary tumors were excised and weighed. […] However, M0038-F01 was not effective in reducing lymph node or lung metastases in this experiment.

The next assay relates to PC3 prostate tumors. The experiment in a line: PC3 prostate tumor growth. As to conditions: M0038-F01 10, 1 or 0.1 mg/kg Q2d IP; taxotere 10 mg/kg weekly IP; A2 10 mg/kg Q2d. The class given is in vivo, mouse. An excerpt:
PC3 prostate cancer cells were implanted into male nude mice by subcutaneous injection.

[2] abbreviates: immunostaining of tumor tissue, day 35.
The mark [3] stands for this setting: immunostaining of tumor tissue, day 35 post-treatment, image analysis.

Experimental for MDA-MB-231-GFP tumors: Human breast cancer cells MDA-MB-231 cells transfected with green fluorescent protein (MDA-MB-231-GFP) were inoculated into the mammary fat pad of female BALB/c nu/nu mice with Matrigel. Animals were monitored for tumor growth, and at week 4-5 post tumor cell inoculation, animals with tumors of 30-50 mm^3 were selected, randomized and divided into experimental groups. […] Tumor volume was measured weekly, starting at week 5. Additionally, tissue samples of lung, liver, and spleen were taken to assess metastasis.
Animals were inoculated with MDA-MB-231-GFP cells as described above, then selected and randomized, and divided into experimental groups of 8 animals each. […] Tumor volume was measured weekly, starting at week 5.
Tumor tissue samples were collected on day 35 post-treatment for immunohistochemical analysis. Paraffin-embedded tissue samples were sectioned, stained with CD31 (Santa Cruz Biotechnology Inc., Santa Cruz, Calif., USA), Ki-67 (DAKO, Carpinteria, Calif., USA), MAPK, FAK, phosphoMAPK or phosphoFAK antibodies, visualized with biotinylated secondary antibodies using a VECTASTAIN® ABC (Vector Laboratories Inc., Burlingame, Calif., USA), and lightly counterstained with haemotoxylin.

`CNC(=O)[C@H](Cc1c[nH]c2ccccc12)NC(=O)[C@@H](CC(=O)NO)CC(C)C` [GM6001, reference compound]: in assay [1], the “pro-MMP-2 activation by MMP-14” value is “completely abolished” and the pro-MMP-9 expression result was “paradoxically stimulated”.
Take `COc1cccc2c1C(=O)c1c(O)c3c(c(O)c1C2=O)C[C@@](O)(C(=O)CO)C[C@@H]3O[C@H]1C[C@H](N)[C@H](O)[C@H](C)O1` [DOX, doxorubicin]: the tumor growth result with B16F1 melanoma tumors was “effective in reducing tumor growth”. Further, the metastases to spleen entry with MDA-MB-231-GFP tumors (M0038-F01 10 mg/kg Q2d IP, DOX 5 mg/kg weekly IP) was “reduced in DOX and M0038-F01 treated animals, but the difference was not statistically significant”. The “lung and liver metastases” value in the assay on MDA-MB-231-GFP tumors (M0038-F01 10 mg/kg Q2d IP, DOX 5 mg/kg weekly IP, compared to controls) is “statistically significant reduction”. Besides, the “tumor growth (tumor volume)” value with MDA-MB-231-GFP tumors (M0038-F01 or A2 10 mg/kg Q2d IP, DOX 5 mg/kg weekly IP, five weeks) was “substantially inhibited”. For the same molecule, in the assay on MDA-MB-231-GFP tumors (setting [2]), the “CD31 and KI67 levels compared to vehicle and A2 controls” value is “slightly reduced”; the phospho-FAK level came out at 4±1.2 A.U; the phospho-MAP kinase level was 5.8±1.9 A.U; the “total FAK level” value is listed as 6±1 A.U. For the same molecule, the “total MAP kinase level” value in the assay on MDA-MB-231-GFP tumors (setting [2]) was determined as 5.8±1.9 A.U. Besides, in the assay on MDA-MB-231-GFP tumors (setting [3]), the CD31 stood at 4.08 ± 1.28 and the Ki67 was 5.2 ± 0.84.
Consider `CC(=O)O[C@@]12CO[C@@H]1C[C@H](O)[C@@]1(C)C(=O)[C@H](O)C3=C(C)[C@@H](OC(=O)[C@H](O)[C@@H](NC(=O)OC(C)(C)C)c4ccccc4)C[C@@](O)([C@@H](OC(=O)c4ccccc4)[C@H]21)C3(C)C` [Taxotere, taxotere, reference compound], for which the “Tumor Mass (±SD)” value in the assay with MDA-MB-435 GFP tumors (10 mg/kg (F01 and A2 Q2d IP; taxotere QW×3 i.v.), excised primary tumor, day 61, * p≦0.05 compared to Control) is reported as 0.59 ± 0.59*. In the assay with MDA-MB-435 GFP tumors (M0038-F01 1 or 10 mg/kg Q2d IP, taxotere 10 mg/kg QW×3 i.v.), the tumor volume entry is “reduction of tumor volume”. Moreover, the “tumor growth (tumor volume)” value in the assay with PC3 prostate tumors is on record as “extremely effective”.
